Experimental findings from PubChem BioAssay (NCI) are described below.

SMILES strings stand for the structures. Several values for one entry are separate records, joined by “and”; a condition that tells them apart may be missing. Equal entries are not always repeated.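 Tested at 5 concentrations; 48 h exposure; 96-well plates; endpoints linearly interpolated, else capped at highest concentration. GI50 = concentration required for 50% inhibition of growth. TGI is the concentration that stops growth completely.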

Test systems include CCRF-CEM leukemia; COLO 205 colon; HCT-116 colon; KM12 colon; M14 melanoma; MALME-3M melanoma; OVCAR-8 ovarian; RXF 393 renal; SNB-19 CNS; UACC-257 melanoma.
Holding throughout (experiment): NCI-60 cell line screen, 48 h

As to `O=C1/C(=C/c2ccc(C(F)(F)F)cc2)COc2ccc(O)cc21`, the GI50 in the test with CCRF-CEM leukemia is 0.228 µM; in the test on COLO 205 colon, 2.47 µM; in the test with HCT-116 colon, 1.77 µM; with KM12 colon, 1.75 µM; in the test on M14 melanoma, 3.24 µM; in the test on MALME-3M melanoma, 2.05 µM. The GI50 was 3.26 µM in the test with OVCAR-8 ovarian, 1.74 µM with RXF 393 renal, 1.91 µM in the test with SNB-19 CNS and 8.06 µM in the test with UACC-257 melanoma. Moreover, the TGI in the test on CCRF-CEM leukemia came to 1.42 µM; with COLO 205 colon it was 5.83 µM; in the test on HCT-116 colon, 3.42 µM; in the test on KM12 colon, 3.41 µM; in the test on M14 melanoma it was 10.6 µM; in the test on MALME-3M melanoma, 5.1 µM. Besides, the TGI in the test on OVCAR-8 ovarian is 11.1 µM; with RXF 393 renal it was 3.48 µM; in the test on SNB-19 CNS, 3.98 µM; with UACC-257 melanoma it was 20.9 µM.
Turning to `CN1CCN(c2ccc([N+](=O)[O-])c3no[n+]([O-])c23)CC1`, the TGI in the test with CCRF-CEM leukemia is 0.582 µM; in the test with COLO 205 colon it was 2.33 µM and 2.41 µM; in the test on HCT-116 colon, 1.63 µM and 0.634 µM; in the test with KM12 colon, 1.6 µM and 0.291 µM; in the test on M14 melanoma, 1.7 µM and 0.927 µM; with MALME-3M melanoma it was 0.712 µM and 1.08 µM. In addition, the TGI in the test with OVCAR-8 ovarian is 1.75 µM and 0.34 µM; in the test on RXF 393 renal, 1.57 µM and 1.68 µM; in the test with SNB-19 CNS, 4.82 µM and 2.24 µM; in the test with UACC-257 melanoma, 2.69 µM and 1.6 µM. Moreover, the GI50 in the test on COLO 205 colon was 0.942 µM; with HCT-116 colon, 0.152 µM; in the test on KM12 colon, 0.144 µM; in the test on M14 melanoma, 0.177 µM; in the test on MALME-3M melanoma, 0.378 µM; in the test on OVCAR-8 ovarian, 0.145 µM. For the same compound, the GI50 is 0.443 µM in the test with RXF 393 renal and 0.472 µM in the test on UACC-257 melanoma.
Turning to `C[n+]1ccc2[nH]c3ccccc3c2c1`, the TGI was greater than 100 µM with CCRF-CEM leukemia; greater than 100 µM in the test with COLO 205 colon; greater than 100 µM with HCT-116 colon; greater than 100 µM with KM12 colon; greater than 100 µM in the test on M14 melanoma; 99.4 µM with MALME-3M melanoma. Further, the TGI in the test on OVCAR-8 ovarian, in the test with RXF 393 renal, in the test with SNB-19 CNS and in the test on UACC-257 melanoma was greater than 100 µM in each case.
In the case of `COc1ccc(Cn2cc3c(c2-c2ccccc2)CCc2cncnc2-3)cc1`, the GI50 in the test with CCRF-CEM leukemia was 3.99 µM; in the test with COLO 205 colon it was 4.44 µM; in the test on HCT-116 colon it was 3.65 µM; in the test with KM12 colon, 3.57 µM; in the test with M14 melanoma, 4.2 µM; with MALME-3M melanoma, 3.18 µM. Further, the GI50 in the test on OVCAR-8 ovarian is 7.76 µM; in the test with RXF 393 renal it was 3.56 µM; with SNB-19 CNS it was 10.2 µM; in the test on UACC-257 melanoma, 4.03 µM. Also, the TGI in the test with CCRF-CEM leukemia was 18.3 µM; with COLO 205 colon, 17.2 µM; in the test on HCT-116 colon, 14.9 µM; with KM12 colon, 13.5 µM; in the test with M14 melanoma, 18.2 µM; with MALME-3M melanoma, 12.8 µM. The TGI is 23.7 µM with OVCAR-8 ovarian, 9.82 µM in the test on RXF 393 renal, 25 µM in the test on SNB-19 CNS and 16.7 µM with UACC-257 melanoma.
Consider `COc1cc2c(cc1-c1c(C)noc1C)ncc1[nH]c(=O)n([C@H](C)c3ccccn3)c12`, for which the GI50 in the test with CCRF-CEM leukemia was 1.03 µM; in the test on COLO 205 colon, 0.241 µM; in the test on HCT-116 colon it was 1.94 µM; with KM12 colon, 3.01 µM; in the test with M14 melanoma, 3.19 µM; with MALME-3M melanoma it was 1.05 µM. Moreover, the GI50 in the test with OVCAR-8 ovarian was 3.54 µM; with RXF 393 renal, 3.3 µM; with SNB-19 CNS, 1.16 µM; with UACC-257 melanoma it was 0.415 µM. For the same compound, the TGI with CCRF-CEM leukemia was greater than 100 µM; in the test with COLO 205 colon it was greater than 35.6 µM; with HCT-116 colon it was greater than 100 µM; in the test on KM12 colon it was greater than 100 µM; in the test on M14 melanoma it was greater than 100 µM; in the test with MALME-3M melanoma it was 76.2 µM. Also, the TGI with OVCAR-8 ovarian is greater than 100 µM; in the test with RXF 393 renal, greater than 32.1 µM; in the test with SNB-19 CNS, greater than 100 µM; in the test on UACC-257 melanoma it was greater than 100 µM.
Take `Oc1oc(-c2ccccc2)nc1/C=C1/C=NN=N1`: the TGI in the test with CCRF-CEM leukemia, in the test with COLO 205 colon, with HCT-116 colon, in the test with KM12 colon, with M14 melanoma and in the test with MALME-3M melanoma was greater than 100 µM each time. In addition, the TGI with OVCAR-8 ovarian, in the test with RXF 393 renal, with SNB-19 CNS and in the test with UACC-257 melanoma was greater than 100 µM throughout.
For the compound `Cc1cccc2cc3ccc4ccccc4c3cc12`, the TGI in the test on CCRF-CEM leukemia was 39.3 µM; in the test on COLO 205 colon, 39 µM; in the test on HCT-116 colon, greater than 100 µM; in the test on KM12 colon it was greater than 100 µM; with M14 melanoma, greater than 100 µM; in the test with MALME-3M melanoma, greater than 100 µM. Also, the TGI with OVCAR-8 ovarian is greater than 100 µM; in the test with RXF 393 renal, greater than 100 µM; in the test on SNB-19 CNS, greater than 100 µM; in the test with UACC-257 melanoma, 53 µM.
On to `CCN1CCN(c2nc(C)cc(N(CCCNc3ccnc4cc(Cl)ccc34)Cc3ccco3)n2)CC1`, for which the GI50 is 3.51 µM in the test with CCRF-CEM leukemia; 1.85 µM in the test on COLO 205 colon; 2.05 µM in the test with HCT-116 colon; 5.07 µM in the test with KM12 colon; 1.89 µM in the test on M14 melanoma; 1.89 µM with MALME-3M melanoma. Moreover, the GI50 in the test with OVCAR-8 ovarian is 4.08 µM; in the test with RXF 393 renal it was 1.98 µM; in the test on SNB-19 CNS, 4.78 µM; in the test with UACC-257 melanoma it was 1.95 µM. In addition, the TGI with CCRF-CEM leukemia is 12.2 µM; with COLO 205 colon, 3.98 µM; in the test with HCT-116 colon, 10.9 µM; in the test on KM12 colon, 19.4 µM; in the test on M14 melanoma, 3.63 µM; with MALME-3M melanoma, 3.67 µM. In addition, the TGI in the test on OVCAR-8 ovarian was found to be 19.5 µM; in the test on RXF 393 renal, 4.23 µM; in the test with SNB-19 CNS, 17.5 µM; with UACC-257 melanoma it was 3.79 µM.
With `C[C@@H]1CCC2[C@@H](C)[C@H](OC(=O)CCC(=O)NCCNC(=O)Cc3cc(=O)oc4cc(N(C)C)ccc34)O[C@@H]3O[C@]4(C)CC[C@@H]1C23OO4` (stereo partly drawn), the GI50 in the test on CCRF-CEM leukemia was 1.57 µM; with COLO 205 colon, 2.62 µM; with HCT-116 colon it was 0.323 µM; in the test on KM12 colon, 0.432 µM; in the test with M14 melanoma, 2.13 µM; in the test on MALME-3M melanoma it was 2.02 µM. Also, the GI50 in the test with OVCAR-8 ovarian was 0.906 µM; with RXF 393 renal, 3.45 µM; in the test with SNB-19 CNS, 10.7 µM; with UACC-257 melanoma, 4.04 µM. Further, the TGI is greater than 75.7 µM in the test on CCRF-CEM leukemia; 15.2 µM in the test on COLO 205 colon; 12.8 µM in the test on HCT-116 colon; 16.3 µM in the test on KM12 colon; greater than 74.5 µM with M14 melanoma; greater than 100 µM in the test on MALME-3M melanoma. Besides, the TGI was greater than 47.8 µM in the test on OVCAR-8 ovarian, 43.2 µM with RXF 393 renal, greater than 100 µM with SNB-19 CNS and greater than 100 µM in the test on UACC-257 melanoma.
